From patent US20250144067A1, “PERSONALIZED STARVATION THERAPY FOR CANCER” (Faeth Therapeutics, Inc., priority 2021, published 2025)
Structures can show the parent of a compound that is named as a salt.

Assays:
[1] = test system: NCI-H292 lung cancer cells; test: FDA drug screening, complete media vs cholesterol-free media without statin (TABLE 1); format: cell-based, human
[2] = test system: NCI-H292 lung cancer cells; test: FDA drug screening, complete media vs cholesterol-free media with simvastatin (TABLE 2); format: cell-based, human; conditions: for Cholesterol-free media + simvastatin (0.04 μM) / Complete Media: NCI-H292 cells
[3] = Complete minus Cholesterol-free, greater than 0 enhanced anti-cancer activity, about 0 neutral, below 0 antagonist
[4] = NCI-H292 cells, FDA drug library screen, cholesterol-free media without statin
[5] = NCI-H292 cells, FDA drug library screen, complete media
[6] = FDA library drug in cholesterol-free media with simvastatin 0.04 μM
[7] = FDA library drug in complete media
[8] = complete media vs cholesterol-free media + simvastatin (0.04 μM), >0 enhanced anti-cancer activity, about 0 neutral, <0 antagonist
[9] = NCI-H292 cells, cholesterol-free media without statin, FDA drug library screen
[10] = NCI-H292 cells, complete media, FDA drug library screen
[11] = complete vs cholesterol-free media, >0 enhanced anti-cancer activity, about 0 neutral, <0 antagonist
[12] = Complete minus Cholesterol-free, >0 enhanced anti-cancer activity, about 0 neutral, <0 antagonist
[13] = NCI-H292 cells, cholesterol-free media without statin
[14] = complete vs cholesterol-free media, greater than 0 enhanced anti-cancer activity, about 0 neutral, below 0 antagonists
[15] = cholesterol-free media with simvastatin 0.04 μM, cell growth value in FDA drug screen
[16] = complete media, cell growth value in FDA drug screen
[17] = complete media minus cholesterol-free media + simvastatin, >0 enhanced anti-cancer activity, about 0 neutral, <0 antagonist
[18] = cholesterol-free media with simvastatin 0.04 μM, FDA drug library screen (TABLE 2)
[19] = complete media, FDA drug library screen (TABLE 2)
[20] = complete media minus cholesterol-free media + simvastatin (0.04 μM), >0 enhanced anti-cancer activity, about 0 neutral, <0 antagonist
[21] = FDA drug library screen, cholesterol-free media with simvastatin 0.04 μM
[22] = FDA drug library screen, complete media
[23] = Complete minus Cholesterol-free, greater than 0 enhanced anti-cancer activity, about 0 neutral, below 0 antagonists
[24] = NCI-H292 cells in cholesterol-free media without statin
[25] = NCI-H292 cells in complete media

Cc1cccc(C)c1NC(=O)C1CCCCN1C (centres unmarked) [Mepivacaine]
Difference [1, 3]: −0.09 | Cholesterol-free [1, 4]: 1.247 | Complete [1, 5]: 1.156 | Cholesterol-free media + simvastatin (0.04 μM) [2, 6]: 1.558 | Complete Media [2, 7]: 0.984 | Difference [2, 8]: −0.57

C[C@H]1C[C@H]2[C@@H]3CCC4=CC(=O)C=C[C@]4(C)[C@H]3C(=O)C[C@]2(C)[C@@]1(O)C(=O)CO [Meprednisone]
Cholesterol-free [1, 9]: 0.7649 | Complete [1, 10]: 1.522 | Difference [1, 11]: 0.76 | Cholesterol-free media + simvastatin (0.04 μM) ([2]; drug in cholesterol-free media with simvastatin 0.04 μM): 1.224 | Complete Media ([2]; drug in complete media): 0.9766 | Difference [2, 8]: −0.25

COc1ccc(CN(CCN(C)C)c2ccccn2)cc1 [Mepyramine maleate]
Difference [1, 3]: −0.17 | Cholesterol-free [1, 4]: 1.527 | Complete [1, 5]: 1.356 | Cholesterol-free media + simvastatin (0.04 μM) [2, 6]: 1.226 | Complete Media [2, 7]: 0.8399 | Difference [2, 8]: −0.39

COc1ccc(O)cc1 [Mequinol]
Difference [1, 12]: −0.26 | Cholesterol-free [1, 13]: 0.8829 | Complete ([1]; NCI-H292 cells, complete media): 0.6277 | Cholesterol-free media + simvastatin (0.04 μM) [2, 6]: 1.22 | Complete Media [2, 7]: 0.8263 | Difference [2, 8]: −0.39

c1ccc2c(c1)Sc1ccccc1N2CC1CN2CCC1CC2 (centres unmarked) [Mequitazine]
Cholesterol-free [1, 13]: 1.704 | Complete ([1]; NCI-H292 cells, complete media): 1.338 | Difference [1, 14]: −0.37 | Cholesterol-free media + simvastatin (0.04 μM) [2, 15]: 0.8559 | Complete Media [2, 16]: 0.9842 | Difference [2, 17]: 0.13

C[C@@H](O)[C@H]1C(=O)N2C(C(=O)O)=C(S[C@@H]3CN[C@H](C(=O)N(C)C)C3)[C@H](C)[C@H]12 [Meropenem (trihydrate)]
Cholesterol-free [1, 9]: 1.169 | Complete [1, 10]: 1.522 | Difference [1, 11]: 0.35 | Cholesterol-free media + simvastatin (0.04 μM) [2, 18]: 1.099 | Complete Media [2, 19]: 1.05 | Difference [2, 20]: −0.05

O=S(=O)(O)CCS [Mesna]
Difference [1, 12]: −0.29 | Cholesterol-free [1, 13]: 1.145 | Complete ([1]; NCI-H292 cells, complete media): 0.8536 | Cholesterol-free media + simvastatin (0.04 μM) [2, 21]: 1.227 | Complete Media [2, 22]: 1.122 | Difference [2, 8]: −0.10

C#C[C@]1(O)CC[C@H]2[C@@H]3CCc4cc(OC)ccc4[C@H]3CC[C@@]21C [Mestranol]
Difference [1, 12]: −0.06 | Cholesterol-free [1, 9]: 0.9912 | Complete [1, 10]: 0.9277 | Cholesterol-free media + simvastatin (0.04 μM) [2, 6]: 1.197 | Complete Media [2, 7]: 0.9303 | Difference [2, 8]: −0.27

Cc1ncc(CO)c(CO)c1O.O=C1CC[C@@H](C(=O)O)N1 [Metadoxine]
Difference ([1]; Complete minus Cholesterol-free, […]): −0.12 | Cholesterol-free [1, 4]: 1.129 | Complete [1, 5]: 1.01 | Cholesterol-free media + simvastatin (0.04 μM) [2, 21]: 1.163 | Complete Media [2, 22]: 1.057 | Difference ([2]; complete media vs cholesterol-free media + simvastatin (0.04 μM), […]): −0.11

Cc1cc(C)cc(OCC2CNC(=O)O2)c1 (centres unmarked) [Metaxalone]
Difference [1, 23]: −0.49 | Cholesterol-free [1, 24]: 1.567 | Complete [1, 25]: 1.078 | Cholesterol-free media + simvastatin (0.04 μM) [2, 6]: 1.3 | Complete Media [2, 7]: 1.014 | Difference [2, 8]: −0.29

CN1C[C@H](CNC(=O)OCc2ccccc2)C[C@@H]2c3cccc4c3c(cn4C)C[C@H]21 [Metergoline]
Cholesterol-free [1, 13]: 1.165 | Complete ([1]; NCI-H292 cells, complete media): 0.7326 | Difference [1, 14]: −0.43 | Cholesterol-free media + simvastatin (0.04 μM) [2, 15]: 0.7892 | Complete Media [2, 16]: 0.8668 | Difference [2, 17]: 0.08

CN(C)C(=N)N=C(N)N [Metformin (hydrochloride)]
Cholesterol-free [1, 9]: 0.9765 | Complete [1, 10]: 1.069 | Difference [1, 11]: 0.09 | Cholesterol-free media + simvastatin (0.04 μM) [2, 15]: 0.8358 | Complete Media [2, 16]: 0.8942 | Difference [2, 17]: 0.06

CN(C)C(=N)N=C(N)N [Metformin]
Difference [1, 23]: −0.64 | Cholesterol-free [1, 24]: 1.603 | Complete [1, 25]: 0.9656 | Cholesterol-free media + simvastatin (0.04 μM) [2, 21]: 1.921 | Difference [2, 20]: −0.91

CC(=O)OC(C)C[N+](C)(C)C.[Cl-] (centres unmarked) [Methacholine (chloride)]
Difference [1, 3]: −0.15 | Cholesterol-free [1, 4]: 1.05 | Complete [1, 5]: 0.8971 | Cholesterol-free media + simvastatin (0.04 μM) [2, 18]: 1.245 | Complete Media [2, 19]: 1.195 | Difference [2, 20]: −0.05
